Test results: patent US10583387B2, “Guanidine compounds for carbon dioxide capture” (UT-Battelle, LLC, priority 2017, dated 2020)
Converted amounts (≈) assume the structure as drawn. “And” between values parts separate entries of the source, which are not always exact repeats. Equal entries are not always repeated. Values belong to the molecule of their own block, whether it stands above or below them.

Columns and labels:
[1] = cited from earlier work
[2] = CO2 release and PyBIG regeneration by solar oven heating; type: physicochemical
Protocol: The CO2 release from the PyBIGH2(CO3)(H2O)4 crystals was conducted by solar heating with a solar oven. The oven consists of a vacuum-insulated borosilicate tube placed in the focal point of two adjustable parabolic reflectors. The temperature inside the tube was monitored with a thermocouple. The PyBIGH2(CO3)(H2O)4 samples 36.4-45.0 mg, 0.095-0.118 mmol) were loaded in 1 mL glass vials, which were placed inside the oven tube. The solar oven was then placed in the full sun and oriented to capture the maximum amount of sunlight. The temperature was ramped to the targeted values of 120° C., 130° C., 140° C., 150° C., or 160° C. as fast as possible (typically within 3 to 10 minutes), then held within ±2° C. by intermittently moving the oven out of the sun, or/and closing the reflectors. The samples were subsequently removed from the tube, allowed to cool to room temperature, and weighed to determine their mass loss. The resulting yellow solids were analyzed by FTIR to confirm the disappearance of the carbonate and water peaks. The solar regeneration experiments were repeated three times at each temperature, and the average values and standard deviations calculated.
However, considering that this transformation is highly endothermic, the possibility of using concentrated solar power to render the process more energy sustainable was explored. For the initial small-scale proof of concept, a solar oven was used to heat solid PyBIGH2(CO3)(H2O)4 samples (˜38 mg, 0.1 mmol) at five different temperatures ranging between 120 and 160° C. FTIR analyses corroborated the release of CO2, most evidently noticeable by the disappearance of the strong peak at 1361 cm^−1 corresponding to the stretching mode of the carbonate anion.

[3] = cited from earlier work; for reaction rate of CO2 with sorbent: 25° C.
[4] = Reaction enthalpies of elementary steps in DAC with PyBIG (van't Hoff analyses); type: physicochemical; conditions: for ΔH, PyBIGH2(CO3)(H2O)4 crystallization: equation 6
Text: It is instructive to compare the thermodynamics of the CO2 absorption by PyBIG with those of other sorbents used in DAC. For example, amine sorbents have absorption enthalpies in the range of 60-80 kJ/mol. […] Thus, the actual CO2 ‘binding’ by PyBIG, corresponding to equations 3-5 combined, has an enthalpy of −109.8 kJ/mol. This is essentially the same as the enthalpy of CO2 absorption by aqueous NaOH. The crystallization step (equation 6) then adds −47 kJ/mol, to make the overall absorption process a combined −156 kJ/mol, which is about twice as exothermic compared to the CO2 absorption by a typical amine sorbent. However, dissolution of PyBIG (equation 1), which is endothermic (+42.5 kJ/mol) and essentially offsets the exothermic crystallization in step 6, and proton transfer from water to the guanidine groups (equation 2), which is also endothermic (+43.6), brings the overall enthalpy for CO2 capture by PyBIG (equation 7) to −70.7 kJ/mol.

[5] = Thermogravimetric analysis (TGA-MS) and oven heating of the carbonate crystals; type: physicochemical
Text: Thermogravimetric analysis coupled with mass spectrometry (TGA-MS) provided a more quantitative picture of the decomposition process.

[6] = Differential scanning calorimetry (DSC), enthalpy of CO2 release; type: physicochemical
Text: In order to determine the enthalpy of CO2 release from PyBIGH2(CO3)(H2O)4, differential scanning calorimetry (DSC) was employed. DSC is a common technique used in thermal analysis of solids. […] Unfortunately, the extensive overlap between the peaks prevented a determination of the heats associated with each thermal event. Instead, all the peaks were integrated together to obtain the overall enthalpy of desorption for PyBIGH2(CO3)(H2O)4, which amounts to 223±4 kJ/mol. While the overall reaction is highly endothermic, it should be taken into account that, for each CO2 molecule released from PyBIGH2(CO3)(H2O)4, there are four molecules of hydration that are desorbed (plus a fifth water molecule that is a bi-product of the carbonate decomposition).
In order to determine the fraction of the reaction enthalpy corresponding to the CO2 release from the carbonate, anhydrous PyBIGH2(CO3) was prepared by overnight vacuum pumping of PyBIGH2(CO3)(H2O)4 at 30° C. […] The difference between the measured endotherms of PyBIGH2(CO3)(H2O)4 and PyBIGH2(CO3), of 148 kJ/mol, can be assigned to dehydration of the carbonate salt. This corresponds to an average of 37 kJ/mol per water of hydration, which is close to the enthalpy of vaporization for liquid water, of 40.65 kJ/mol. While a large fraction of the heat required to release the CO2 is spent on water evaporation, part of the waste heat could be recovered by process modifications that involve water condensation steps in which the resulting heat is collected and re-used via heat exchangers. Alternatively, vacuum-drying operations that typically require less energy than heat drying can be employed for dehydration of PyBIGH2(CO3)(H2O)4 prior to CO2 release. The use of renewable sources of energy, such as concentrated solar power, is also herein being considered to make the overall DAC process energy sustainable.

[7] = Accelerated aging of PyBIG (thermal stability); type: physicochemical
[8] = Aqueous solubility and solubility product (variable-temperature solubility measurements); conditions: saturated solution (~10 mM)
[9] = pKa by potentiometric titration; type: physicochemical; conditions: 25° C., read-out: pKa of the two guanidinium groups
physchem = conditions: pH 10, water, thermodynamic from solid
[10] = Equilibrium constant for the amino acid regeneration reaction (equation 11); type: physicochemical; conditions: glycine sorbent, ideal conditions
Text: In addition to the enthalpies of CO2 absorption and release, another important thermodynamic parameter is the equilibrium constant for the amino acid regeneration reaction (equation 10), which defines the efficiency limit for sorbent regeneration.

[11] = liquid; cited from earlier work

SMILES: O=C=O [CO2, carbon dioxide]
ΔH, CO2 dissolution ([1]; equation 3): -4.64 kcal/mol

SMILES: O=C(O)O [CO3^2−, carbonate]
ΔH, CO3^2− formation ([1]; equation 5): -9.66 kcal/mol

SMILES: O=C([O-])[O-].[Ca+2] [CaCO3, reference compound]
CO2 release on solar heating ([2]; two hours at 160° C.): no CO2 release was observed

SMILES: O=C(O)O [HCO3^−, bicarbonate]
ΔH, HCO3^− formation ([1]; equation 4): -12 kcal/mol

SMILES: [Na+].[OH-] [NaOH]
flux of CO2 absorbed from air ([3]; 1 M solution): around 30 μmol/m^2/s

SMILES: N=C(N)NN=Cc1cccc(C=NNC(=N)N)n1.O.O.O.O.O=C(O)O [PyBIGH2(CO3)(H2O)4]
ΔH, PyBIGH2(CO3)(H2O)4 crystallization [4]: -11.2 kcal/mol | decomposition completion, isothermal TGA ([5]; 80° C., after 300 minutes): 77% | time to complete loss of carbon dioxide and water, isothermal TGA ([5]; 100° C.): 150 min | time to complete loss of carbon dioxide and water, isothermal TGA ([5]; 120° C.): 60 min | mass loss, temperature-ramped TGA ([5]; between 65 and 140° C.): 35.2% | mass loss of crystals heated in the oven ([5]; one hour at 120° C.): 34.3% | average enthalpy per water of hydration [6]: 8.84 kcal/mol | overall enthalpy of desorption (DSC) ([6]; all peaks between 80 and 140° C. integrated): 53.3 ± 0.96 kcal/mol | enthalpy of dehydration of the carbonate salt ([6]; difference between endotherms of hydrated and anhydrous salt): 35.4 kcal/mol | Weight loss ([2]; 120 ° C., 30 min): 32.3 ± 0.8% | Weight loss ([2]; 130 ° C., 15 min): 32.3 ± 0.8% | Weight loss ([2]; 140 ° C., 10 min): 33.2 ± 0.8% | Weight loss ([2]; 150 ° C., 5 min): 32.5 ± 0.8% | Weight loss ([2]; 160 ° C., 2 min): 33.8 ± 0.3%

SMILES: N=C(N)NN=Cc1cccc(C=NNC(=N)N)n1.O=C(O)O [PyBIGH2(CO3)]
enthalpy of the CO2 release (DSC) ([6]; anhydrous carbonate salt): 17.9 ± 1.4 kcal/mol

initial weight loss corresponding to CO2 and H2O loss ([7]; 120° C. in open air): 35.3% | weight loss during accelerated aging (TGA) ([7]; 120° C. in open air for a week, after initial loss): 0.5% | pH of saturated solution [8]: about 10 | ΔH, PyBIG dissolution ([4]; equation 1): 10.2 kcal/mol | ΔH, PyBIG protonation ([4]; equation 2, sum of both protonation enthalpies plus twice water deprotonation): 43.6 kJ/mol and 43.6^a kJ/mol | ΔH, PyBIGH2(CO3)(H2O)4 crystallization [4]: -11.2 kcal/mol | enthalpy of CO2 'binding' ([4]; equations 3-5 combined): -26.24 kcal/mol | enthalpy of absorption incl. crystallization step ([4]; equations 3-6 combined): -37.3 kcal/mol | pKa [9]: 7.6 | no decomposition up to (TGA-MS) ([5]; regenerated compound): 190 °C | solubility (physchem): ~10 mM (≈ 2470 µg/mL) | log Kreg [10]: 3.5
SMILES: N=C(N)N/N=C/c1cccc(/C=N/NC(=N)N)n1 [PyBIG]

SMILES: NCC(=O)O [glycine]
reaction rate of CO2 with sorbent [3]: ~13.9 kM/s

SMILES: CNCC(=O)O [sarcosine]
reaction rate of CO2 with sorbent [3]: ca. 18.6 kM/s

SMILES: O [water]
enthalpy of vaporization [11]: 9.716 kcal/mol
